Test results published in US20230406885A1, “CYCLIC PEPTIDES FOR TRAPPING INTERLEUKIN-1 BETA” (MERCK SHARP & DOHME LLC, priority 2022, published 2023).
Where a SMILES comes first, the peptide text is derived from it. [ ]: non-standard residue; d: D form. Bip(4'-COOH) = N[C@@H](Cc1ccc(-c2ccc(C(=O)O)cc2)cc1)C(=O)O; 1Nal(3S-Me) = C[C@@H](c1cccc2ccccc12)[C@H](N)C(=O)O; hPhe(4-CF3) = N[C@@H](CCc1ccc(C(F)(F)F)cc1)C(=O)O; Ala(pyrimidin-5-yl) = N[C@@H](Cc1cncnc1)C(=O)O; Phe(4-COOH) = N[C@@H](Cc1ccc(C(=O)O)cc1)C(=O)O; Trp(7-aza) = N[C@@H](Cc1c[nH]c2ncccc12)C(=O)O; h3Pal(5-CN) = N#Cc1cncc(CC[C@H](N)C(=O)O)c1; Pro(4R-NH2) = N[C@H]1CN[C@H](C(=O)O)C1; AEF = NCCOc1ccc(C[C@H](N)C(=O)O)cc1; hTyr = N[C@@H](CCc1ccc(O)cc1)C(=O)O; hPhe = N[C@@H](CCc1ccccc1)C(=O)O; dDab = NCC[C@@H](N)C(=O)O; dNMeA = CN[C@H](C)C(=O)O; Dab = NCC[C@H](N)C(=O)O; Aib = CC(C)(N)C(=O)O

Molecular target: T1, Recombinant human IL-1β (Homo sapiens, UniProt P01584)
T1 construct: purchased BioLegend 579404
Assay: IL-6 assay in MRC5 cells: inhibition of IL-1β induced IL-6 secretion (AlphaLISA)
Type: cell-based
Conditions: inhibition of IL-1β induced IL-6 secretion in MRC5 cells; IL-1β pre-incubated 1 hour with compound; read-out: MRC5 IC50
Summary of the method: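 IL-1β at 2×EC80 in seeding medium (EMEM, 0.025% BSA) preincubated 1 h at ambient temperature with compound, then 3000 MRC5 cells/well added and incubated overnight at 37 °C, 5% CO2. IL-6 in conditioned medium quantified by AlphaLISA; IC50 from 4-parameter logistic fit.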

T1 sequence (P01584 117-269): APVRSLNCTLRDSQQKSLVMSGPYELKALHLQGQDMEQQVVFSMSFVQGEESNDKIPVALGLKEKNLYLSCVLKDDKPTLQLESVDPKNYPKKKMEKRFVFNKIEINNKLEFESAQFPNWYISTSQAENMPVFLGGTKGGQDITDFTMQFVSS

Structure (SMILES)	IC50 [nM]
CC(=O)NCCOc1ccc(C[C@@H]2NC(=O)[C@H](CCc3ccc(O)cc3)NC(=O)C(C)(C)NC(=O)CNC(=O)[C@H](CCCCN)NC(=O)[C@H](Cc3ccc(-c4ccc(C(=O)O)cc4)cc3)NC(=O)CNC(=O)[C@@H](C)N(C)C(=O)[C@H](CC(=O)O)NC(=O)[C@H]([C@@H](C)c3cccc4ccccc34)NC(=O)[C@@H]3C[C@@H](N)CN3C(=O)CNC(=O)[C@H](Cc3ccc(C(=O)O)cc3)NC(=O)[C@H](Cc3c[nH]c4ccccc34)NC2=O)cc1 [Example 107] (cyclo([AEF](Ac)W[Phe(4-COOH)]G[Pro(4R-NH2)][1Nal(3S-Me)]D[dNMeA]G[Bip(4'-COOH)]KG[Aib][hTyr]))	0.0582
CC(=O)NCCOc1ccc(C[C@@H]2NC(=O)[C@H](CCc3ccc(O)cc3)NC(=O)[C@@H](C)NC(=O)CNC(=O)[C@H](CCCCN)NC(=O)[C@H](Cc3ccc(-c4ccc(C(=O)O)cc4)cc3)NC(=O)CNC(=O)[C@@H](C)N(C)C(=O)[C@H](CC(=O)O)NC(=O)[C@H]([C@@H](C)c3cccc4ccccc34)NC(=O)[C@@H]3C[C@@H](N)CN3C(=O)CNC(=O)[C@H](Cc3ccc(C(=O)O)cc3)NC(=O)[C@H](Cc3c[nH]c4ccccc34)NC2=O)cc1 [Example 108] (cyclo([AEF](Ac)W[Phe(4-COOH)]G[Pro(4R-NH2)][1Nal(3S-Me)]D[dNMeA]G[Bip(4'-COOH)]KG[dA][hTyr]))	0.102
CC(=O)NCCOc1ccc(C[C@@H]2NC(=O)[C@H](CCc3ccc(O)cc3)NC(=O)[C@@H](C)N(C)C(=O)CNC(=O)[C@H](CCCCN)NC(=O)[C@H](Cc3ccc(-c4ccc(C(=O)O)cc4)cc3)NC(=O)CNC(=O)[C@@H](C)N(C)C(=O)[C@H](CC(=O)O)NC(=O)[C@H]([C@@H](C)c3cccc4ccccc34)NC(=O)[C@@H]3C[C@@H](N)CN3C(=O)CNC(=O)[C@H](Cc3ccc(C(=O)O)cc3)NC(=O)[C@H](Cc3c[nH]c4ccccc34)NC2=O)cc1 [Example 109] (cyclo([AEF](Ac)W[Phe(4-COOH)]G[Pro(4R-NH2)][1Nal(3S-Me)]D[dNMeA]G[Bip(4'-COOH)]KG[dNMeA][hTyr]))	0.0775
CC(=O)NCCOc1ccc(C[C@@H]2NC(=O)[C@H](CCc3ccc(O)cc3)NC(=O)[C@@H](C)NC(=O)[C@H](CC(C)C)NC(=O)[C@H](CCCCN)NC(=O)[C@H](Cc3ccc(-c4ccc(C(=O)O)cc4)cc3)NC(=O)CNC(=O)[C@@H](C)N(C)C(=O)[C@H](CC(=O)O)NC(=O)[C@H]([C@@H](C)c3cccc4ccccc34)NC(=O)[C@@H]3C[C@@H](N)CN3C(=O)CNC(=O)[C@H](Cc3ccc(C(=O)O)cc3)NC(=O)[C@H](Cc3c[nH]c4ccccc34)NC2=O)cc1 [Example 110] (cyclo([AEF](Ac)W[Phe(4-COOH)]G[Pro(4R-NH2)][1Nal(3S-Me)]D[dNMeA]G[Bip(4'-COOH)]KL[dA][hTyr]))	0.195
CC(=O)NCCOc1ccc(C[C@@H]2NC(=O)[C@H](CCc3ccc(C(F)(F)F)cc3)NC(=O)[C@@H](C)NC(=O)[C@H](CO)NC(=O)[C@H](CCCCN)NC(=O)[C@H](Cc3ccc(-c4ccc(C(=O)O)cc4)cc3)NC(=O)CNC(=O)[C@@H](C)N(C)C(=O)[C@H](CC(=O)O)NC(=O)[C@H]([C@@H](C)c3cccc4ccccc34)NC(=O)[C@@H]3C[C@@H](N)CN3C(=O)CNC(=O)[C@H](Cc3ccc(C(=O)O)cc3)NC(=O)[C@H](Cc3c[nH]c4ccccc34)NC2=O)cc1 [Example 111] (cyclo([AEF](Ac)W[Phe(4-COOH)]G[Pro(4R-NH2)][1Nal(3S-Me)]D[dNMeA]G[Bip(4'-COOH)]KS[dA][hPhe(4-CF3)]))	0.133
CC(=O)NCCOc1ccc(C[C@@H]2NC(=O)[C@H](CCc3ccc(O)cc3)NC(=O)[C@@H](C)NC(=O)[C@H](CO)NC(=O)[C@H](CCCCN)NC(=O)[C@H](Cc3ccc(-c4ccc(C(=O)O)cc4)cc3)NC(=O)CNC(=O)[C@@H](C)N(C)C(=O)[C@H](CC(=O)O)NC(=O)[C@H]([C@@H](C)c3cccc4ccccc34)NC(=O)[C@@H]3C[C@@H](N)CN3C(=O)CNC(=O)[C@H](Cc3ccc(C(=O)O)cc3)NC(=O)[C@H](Cc3c[nH]c4ccccc34)NC2=O)cc1 [Example 112] (cyclo([AEF](Ac)W[Phe(4-COOH)]G[Pro(4R-NH2)][1Nal(3S-Me)]D[dNMeA]G[Bip(4'-COOH)]KS[dA][hTyr]))	0.0617
CC(=O)NCCOc1ccc(C[C@@H]2NC(=O)[C@H](CCc3cncc(C#N)c3)NC(=O)[C@@H](CCN)NC(=O)CNC(=O)[C@H](Cc3cncnc3)NC(=O)[C@H](Cc3ccc(-c4ccc(C(=O)O)cc4)cc3)NC(=O)CNC(=O)[C@@H](C)N(C)C(=O)[C@H](CC(=O)O)NC(=O)[C@H]([C@@H](C)c3cccc4ccccc34)NC(=O)[C@@H]3C[C@@H](N)CN3C(=O)CNC(=O)[C@H](Cc3ccc(C(=O)O)cc3)NC(=O)[C@H](Cc3c[nH]c4ccccc34)NC2=O)cc1 [Example 113] (cyclo([AEF](Ac)W[Phe(4-COOH)]G[Pro(4R-NH2)][1Nal(3S-Me)]D[dNMeA]G[Bip(4'-COOH)][Ala(pyrimidin-5-yl)]G[dDab][h3Pal(5-CN)]))	0.0918
CC(=O)NCCOc1ccc(C[C@@H]2NC(=O)[C@H](CCc3cncc(C#N)c3)NC(=O)[C@@H](CCN)NC(=O)CNC(=O)[C@H](Cc3c[nH]c4ncccc34)NC(=O)[C@H](Cc3ccc(-c4ccc(C(=O)O)cc4)cc3)NC(=O)CNC(=O)[C@@H](C)N(C)C(=O)[C@H](CC(=O)O)NC(=O)[C@H]([C@@H](C)c3cccc4ccccc34)NC(=O)[C@@H]3C[C@@H](N)CN3C(=O)CNC(=O)[C@H](Cc3ccc(C(=O)O)cc3)NC(=O)[C@H](Cc3c[nH]c4ccccc34)NC2=O)cc1 [Example 114] (cyclo([AEF](Ac)W[Phe(4-COOH)]G[Pro(4R-NH2)][1Nal(3S-Me)]D[dNMeA]G[Bip(4'-COOH)][Trp(7-aza)]G[dDab][h3Pal(5-CN)]))	0.0233
CC(=O)NCCOc1ccc(C[C@@H]2NC(=O)[C@H](CCc3ccccc3)NC(=O)[C@@H](C)NC(=O)[C@H](CCN)NC(=O)[C@H](Cc3c[nH]c4ccccc34)NC(=O)[C@H](Cc3ccc(-c4ccc(C(=O)O)cc4)cc3)NC(=O)CNC(=O)[C@@H](C)N(C)C(=O)[C@H](CC(=O)O)NC(=O)[C@H]([C@@H](C)c3cccc4ccccc34)NC(=O)[C@@H]3C[C@@H](N)CN3C(=O)CNC(=O)[C@H](Cc3ccc(C(=O)O)cc3)NC(=O)[C@H](Cc3c[nH]c4ccccc34)NC2=O)cc1 [Example 115] (cyclo([AEF](Ac)W[Phe(4-COOH)]G[Pro(4R-NH2)][1Nal(3S-Me)]D[dNMeA]G[Bip(4'-COOH)]W[Dab][dA][hPhe]))	0.085
CC(=O)NCCOc1ccc(C[C@@H]2NC(=O)[C@H](CCc3ccc(O)cc3)NC(=O)[C@@H](C)NC(=O)[C@H](CCN)NC(=O)[C@H](Cc3c[nH]c4ccccc34)NC(=O)[C@H](Cc3ccc(-c4ccc(C(=O)O)cc4)cc3)NC(=O)CNC(=O)[C@@H](C)N(C)C(=O)[C@H](CC(=O)O)NC(=O)[C@H]([C@@H](C)c3cccc4ccccc34)NC(=O)[C@@H]3C[C@@H](N)CN3C(=O)CNC(=O)[C@H](Cc3ccc(C(=O)O)cc3)NC(=O)[C@H](Cc3c[nH]c4ccccc34)NC2=O)cc1 [Example 116] (cyclo([AEF](Ac)W[Phe(4-COOH)]G[Pro(4R-NH2)][1Nal(3S-Me)]D[dNMeA]G[Bip(4'-COOH)]W[Dab][dA][hTyr]))	0.492
